These results are taken from US20050020576A1, “Kappa agonist compounds and pharmaceutical formulations thereof” (priority 1996, published 2005).

Structures can show the parent of a compound that is named as a salt.

One data set deals with cloned human kappa receptor (Homo sapiens, UniProt P41145). In words: biochemical. The class given is binding.
Chain of cloned human kappa receptor (P41145 whole entry): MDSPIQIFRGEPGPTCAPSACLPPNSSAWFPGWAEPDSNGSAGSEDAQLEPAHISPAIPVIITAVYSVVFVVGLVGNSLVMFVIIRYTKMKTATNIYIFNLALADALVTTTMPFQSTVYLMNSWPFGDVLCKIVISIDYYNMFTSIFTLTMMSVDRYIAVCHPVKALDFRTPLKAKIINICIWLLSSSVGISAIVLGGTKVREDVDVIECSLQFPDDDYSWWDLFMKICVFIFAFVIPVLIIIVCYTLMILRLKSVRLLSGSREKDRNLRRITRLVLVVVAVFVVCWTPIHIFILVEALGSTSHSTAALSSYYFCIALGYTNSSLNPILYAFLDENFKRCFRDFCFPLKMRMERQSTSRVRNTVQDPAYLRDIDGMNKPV
Conditions: not given
In the case of “(±)-trans-3-N-Methyl-N-[2-(1-pyrrolidinyl)cyclohexyl]-(trans-3-furyl)acetamide hydrochloride [Example 4f]”, the “[3H]-Diprenorphin, % @ 1 μM” value is 0% @ 1 μM.

Staying with this data set, now noted: Ki (nM) [3H]-Diprenorphin κ.
With `COc1cc(CC(=O)N(C)[C@H](CN2CCCC2)c2ccccc2)c(S(=O)(=O)N2CCOCC2)cc1OC` [Example 140, 2-[2-N-(Morpholinesulfamoyl)-4,5-dimethoxyphenyl]-N-methyl-N-[(1S)-1-phenyl-2-[1-(pyrrolidinyl)ethyl]]acetamide], the Ki stood at 0.56 nM.
With `COc1cc(CC(=O)N(C)[C@H](CN2CCCC2)c2ccccc2)c(S(=O)(=O)N(C)CC(=O)O)cc1OC` [Example 142, N-Methyl-[[2-(N-sulfamoyl)-4,5-dimethoxyphenyl]-N-methyl-N-[(1S)-1-phenyl-2-[1-(pyrrolidinyl)ethyl]]acetamido]glycine], the affinity corresponds to a Ki of 13 nM.
Consider `COc1cc(CC(=O)N(C)[C@H](CN2CCCC2)c2ccccc2)c(S(=O)(=O)N(C)Cc2ccccc2)cc1OC` [Example 148, 2-[2-(N-Benzyl-N-methylsulfamoyl)-4,5-dimethoxyphenyl]-N-methyl-N-[(1S)-1-phenyl-2-[(1-pyrrolidinyl)ethyl]]acetamide], for which the Ki is 0.83 nM.

The data set is the same for the next values; noted with them: read-out: Ki(nM) [3H]-Diprenorphin κ.
As for `COc1cc(CC(=O)N(C)[C@H](CN2CCCC2)c2ccccc2)c(S(=O)(=O)NC(C)(C)C)c(OC)c1OC` [Example 144, 2-[2-(N-t-Butylsulfamoyl)-3,4,5-trimethoxyphenyl]-N-methyl-N-[(1S)-1-phenyl-2-[(1-pyrrolidinyl)ethyl]]acetamide], the Ki worked out at 0.17 nM.

System in a further data set: not given
Assay: not given
Conditions: not given
With `COc1cc(CC(=O)N(C)[C@H](CN2CC[C@H](O)C2)c2ccccc2)cc(OC)c1OC.Cl`, the melting point lay in the range of 230 to 232 °C.
In turn, `Cl.NS(=O)(=O)N1CCN(C(=O)Cc2ccc(Cl)c(Cl)c2)[C@H](CN2CCCC2)C1` displayed a melting point of 183 to 185 °C.
`CN(C(=O)Cc1ccccc1[N+](=O)[O-])[C@H](CN1CCCC1)c1cccc([N+](=O)[O-])c1` (as salt: HCl) came in with a melting point of 258 to 259 °C.
Take `CN(C(=O)Cc1ccccc1N)[C@H](CN1CCCC1)c1cccc(N)c1` (as salt: HCl): the melting point is 219 to 222 °C.
On the same count and under the same terms, with `CN(C(=O)Cc1cc(Cl)c(Cl)cc1[N+](=O)[O-])[C@H](CN1CCCC1)c1cccc([N+](=O)[O-])c1` (as salt: HCl) the figure was 165 °C (dec.); with `CN(C(=O)Cc1ccc(S(C)(=O)=O)cc1)[C@H](CN1CCCC1)c1cccc([N+](=O)[O-])c1` (as salt: HCl), 276 to 277 °C; with `CCCCOC(=O)Nc1ccc(CC(=O)N(C)[C@H](CN2CCCC2)c2cccc([N+](=O)[O-])c2)cc1` (as salt: HCl), 170 °C (dec.).
On to `CN(C(=O)Cc1ccccc1NCC(=O)O)C1CCCCC1N1CCCC1` (stereo not shown) (as salt: HCl), for which the melting point was 212 to 214 °C (dec.).
Consider `CN(C(=O)Cc1ccc(C(F)(F)F)cc1NCC(=O)O)C1CCCCC1N1CCCC1` (stereo not shown) (as salt: HCl), for which the melting point was 178 to 180 °C (dec.).
For the compound `CN(C(=O)Cc1ccc(N)cc1)[C@H](CN1CCCC1)c1cccc([N+](=O)[O-])c1` (as salt: HCl), the melting point was 200 °C (dec.).
Compound `CN(C(=O)Cc1ccc(OCc2ccccc2)c(NS(C)(=O)=O)c1)[C@H](CN1CCCC1)c1ccccc1` (as salt: HCl) [Example 123, 2-(3-N-Methylsulfonamido-3-amino-4-benzyloxyphenyl)-N-methyl-N-[(1S)-1-phenyl-2-(1-pyrrolidinyl)ethyl]acetamide] yielded a melting point of 219 to 221 °C.
`CN(C(=O)Cc1ccc(O)c(NS(C)(=O)=O)c1)[C@H](CN1CCCC1)c1ccccc1` (as salt: HCl) [Example 124, 2-(3-N-Methylsulfonamido-3-amino-4-hydroxyphenyl)-N-methyl-N-[(1S)-1-phenyl-2-(1-pyrrolidinyl)ethyl]acetamide] yielded a melting point of 228 to 230 °C.
For the compound `CN(C(=O)Cc1ccccc1NS(C)(=O)=O)[C@H](CN1CC[C@H](O)C1)c1ccccc1` (as salt: HCl) [Example 125, 2-(2-N-Methylsulfonamido-2-aminophenyl)-N-methyl-N-[(1S)-1-phenyl-2-[1-(3S)-(3-hydroxypyrrolidinyl)ethyl]]acetamide], the melting point lay within 168 to 171 °C.
The same measure, in the same setting: with `CN(C(=O)Cc1ccc(C(F)(F)F)cc1NS(C)(=O)=O)[C@H](CN1CC[C@H](O)C1)c1ccccc1` (as salt: HCl) [Example 126, 2-(2-N-Methylsulfonamido-2-amino-4-trifluoromethylphenyl)-N-methyl-N-[(1S)-1-phenyl-2-[1-(3S)-(3-hydroxypyrrolidinyl)ethyl]]acetamide] the figure was 178 to 181 °C; with `COc1ccc(CC(=O)N(C)[C@H](CN2CC[C@H](O)C2)c2ccccc2)cc1NS(C)(=O)=O` (as salt: HCl) [Example 127, 2-(3-N-Methylsulfonamido-3-amino-4-methoxyphenyl)-N-methyl-N-[(1S)-1-phenyl-2-[1-(3S)-(3-hydroxypyrrolidinyl)ethyl]]acetamide], 148 to 151 °C.
The same measure, in the same setting: under `CN(C(=O)Cc1cc2c(cc1S(=O)(=O)N(C)C)OCO2)[C@H](CN1CCCC1)c1ccccc1` (as salt: HCl) [Example 132, 2-[2-(N-Dimethylsulfamoyl)-4,5-methylenedioxyphenyl]-N-methyl-N-[(1S)-1-phenyl-2-[(1-pyrrolidinyl)ethyl]]acetamide] stands 269 to 271 °C; under `COc1cc(CC(=O)N(C)[C@H](CN2CCCC2)c2ccccc2)c(S(=O)(=O)N2CCCC2)cc1OC` (as salt: HCl) [Example 134, 2-[2-(N-Pyrrolidinesulfamoyl)-4,5-dimethoxyphenyl]-N-methyl-N-[(1S)-1-phenyl-2-[(1-pyrrolidinyl)ethyl]]acetamide], 240 to 242 °C.
The compound `COc1cc(CC(=O)N(C)[C@H](CN2CCCC2)c2ccccc2)c(S(=O)(=O)N(C)C)cc1OC` (as salt: HCl) [Example 136, 2-[2-(N-Dimethylsulfamoyl)-4,5-dimethoxyphenyl]-N-methyl-N-[(1S)-1-phenyl-2-[(1-pyrrolidinyl)ethyl]]acetamide] registered a melting point of 246 to 248 °C.
For the compound `COc1cc(CC(=O)N(C)[C@H](CN2CCCC2)c2ccccc2)c(S(=O)(=O)N2CCN(C)CC2)cc1OC` (as salt: HCl) [Example 138], the melting point is 255 to 257 °C (dec.).
Still for that read-out and setting: under `COc1cc(CC(=O)N(C)[C@H](CN2CC[C@H](O)C2)c2ccccc2)c(S(=O)(=O)N2CCN(C)CC2)cc1OC` (as salt: HCl) [Example 139] stands 168 to 171 °C; under `COc1cc(CC(=O)N(C)[C@H](CN2CCCC2)c2ccccc2)c(S(=O)(=O)N2CCOCC2)cc1OC` (as salt: HCl) [Example 140, 2-[2-N-(Morpholinesulfamoyl)-4,5-dimethoxyphenyl]-N-methyl-N-[(1S)-1-phenyl-2-[1-(pyrrolidinyl)ethyl]]acetamide], 229 to 231 °C; under `COc1cc(CC(=O)N(C)[C@H](CN2CC[C@H](O)C2)c2ccccc2)c(S(=O)(=O)N2CCOCC2)cc1OC` (as salt: HCl) [Example 141, 2-[2-N-(Morpholinesulfamoyl)-4,5-dimethoxyphenyl]-N-methyl-N-[(1S)-1-phenyl-2-[1-(3S)-(3-hydroxypyrrolidinyl)ethyl]]acetamide], 158 to 161 °C.
`COc1cc(CC(=O)N(C)[C@H](CN2CCCC2)c2ccccc2)c(S(=O)(=O)N(C)CC(=O)O)cc1OC` (as salt: HCl) [Example 142, N-Methyl-[[2-(N-sulfamoyl)-4,5-dimethoxyphenyl]-N-methyl-N-[(1S)-1-phenyl-2-[1-(pyrrolidinyl)ethyl]]acetamido]glycine]: the melting point is 231 to 233 °C (dec.).
The same measure, in the same setting: under `COc1cc(CC(=O)N(C)[C@H](CN2CCCC2)c2ccccc2)c(S(=O)(=O)N(C)Cc2ccccc2)cc1OC` (as salt: HCl) [Example 148, 2-[2-(N-Benzyl-N-methylsulfamoyl)-4,5-dimethoxyphenyl]-N-methyl-N-[(1S)-1-phenyl-2-[(1-pyrrolidinyl)ethyl]]acetamide] stands 188 to 189 °C.
The same measure, in the same setting: under `CCOP(=O)(OCC)N1CCN(C(=O)Cc2ccc(Cl)c(Cl)c2)[C@H](CN2CCCC2)C1` (as salt: hydrochloride) [(R-3g), (R)-4-(Diethoxyphosphonate)-1-[(3,4-dichlorophenyl)acetyl]-2-[(1-pyrolidinyl)methyl]-piperazine hydrochloride] stands 168 to 170 °C; under `O=C(Cc1ccc(Cl)c(Cl)c1)N1CCN(C(=O)C(F)(F)F)C[C@H]1CN1CCCC1` (as salt: hydrochloride) [(R-3h), (R)-4-Trifluoroacetyl-1-(3,4-dichlorophenyl)acetyl]-2-[(1-pyrrolidinyl)methyl]-piperazine hydrochloride], 145 to 147 °C; under `Cc1ccc(S(=O)(=O)N2CCN(C(=O)Cc3ccc(Cl)c(Cl)c3)[C@H](CN3CCCC3)C2)cc1` (as salt: hydrochloride) [(R-3l), (R)-4-(4-Methyphenylsulfonyl)-1-[(3,4-dichlorophenyl)acetyl]-2-[(1-Pyrrolidinyl)methyl]-piperazine hydrochloride], 240 °C (dec.).
In turn, `CS(=O)(=O)O[C@H]1CCN(CC2CN(S(C)(=O)=O)CCN2C(=O)Cc2ccc(Cl)c(Cl)c2)C1` (stereo partly drawn) (as salt: hydrochloride) [Example 1jj, 4-Methanesulfonyl-1-[(3,4-dichlorophenyl)acetyl]-2-(R,S)-[3-(S)-methanesulfonate-1-(pyrrolidinyl)methyl]piperazine hydrochloride] registered a melting point of 130 to 132 °C.
The same measure, in the same setting: under `CN(C(=O)Cc1ccc(C(F)(F)F)cc1NCC(=O)O)[C@H](CN1CCCC1)c1ccccc1` (as salt: hydrochloride) [Example 3b, N-[(4-Trifluoromethylphenyl)-N-methyl-N-{[1S]-1-phenyl-2-[1-pyrrolidinyl)]ethyl}acetamido]glycine hydrochloride] stands 228 to 230 °C (dec.).

Broadly, the Ki is the equilibrium dissociation constant of an inhibitor or competing ligand from its target. A word on the melting point: it is the temperature, or range, at which the solid turns liquid.
